These results are taken from patent publication US8741570B2, “Thermo-optical characterisation of nucleic acid molecules” (Ludwig-Maximilians-Universitat Munchen, priority 2008, dated 2014).

{AF700} = Alexa Fluor 700 fluorescent dye

A short description of data set [1]: Thermodiffusion (Soret coefficient) by microfluidic fluorescence imaging / single particle tracking. It counts as physicochemical. Conditions: 50 μM dye in 10 mM TRIS buffer, concentration over time method.
The test system of the next data set is bacteriophage lambda DNA. The experiment in a line: DNA hybridization thermophoresis of labelled probe with lambda DNA. The format is binding. As for the experimental part:
Typical target molecules are longer than 20 bases and double stranded. For target molecules longer than 20 bases and double stranded, one has to expect a competing reaction between the labeled probe and the target DNA strands containing the same “probe-sequence”. […] The concentration change is determined in samples containing the pure DNA probe and in solutions containing the probe mixed with lambda DNA. We checked twice for the hybridization of probe DNA and lambda DNA. First after simply mixing of the molecules and second after an additional annealing procedure (94° C., 5 min and 72° C., 5 min) was carried out.
The experiment shown in FIG. 38 (b) is performed at a constant concentration of 40 nM probe DNA and 10 nM target DNA. All samples are preferably measured in a 100 μm-1 mm Capillary. The thermo-optical properties of the probe DNA have been determined in an independent experiment, followed by a mix of probe and target. […]
After an equilibration time of preferably 10 seconds a first capillary can be measured. […]
Step 1. […] (The thermo-optical properties (i.e. concentration change) of the free probe molecule is known from an independent experiment. Alternatively the thermo-optical behavior of a DNA molecule similar to the probe, but not complementary to a target molecule, is measured simultaneously in a multiplex approach (internal reference)).
Step 2. […] The immediately established local spatial temperature distribution causes the labeled primers and elongated primers (as well as internal reference standards) to drift to lower or higher temperatures, depending on the particular molecule to be analyzed and conditions like pH, salt concentration etc. […] The maximum temperature elevation is set below values which would harm the molecules to be analyzed or hinder their hybridization. […]
Step 3. During the laser heating an image of the fluorescence distribution is recorded (or multiple frames which may be averaged to a single image). Afterwards the infrared laser and the fluorescence excitation light source are turned off. […]

Data set [2] in a line: Hydration entropy from literature. It counts as physicochemical. Conditions: linear scaling with surface area using radius a=2 nm. An excerpt: The intercept ST(λDH=0), where ionic contributions are zero, also scales with particle surface and is described by a hydration entropy per particle surface of shyd=−1400 J/(molKμm^2). The value matches the literature values for similar surfaces reasonably well^30,31. […] Linear scaling with its surface area by using a radius of a=2 nm results in a value of shyd=−2500 J/(molKμm^2), in qualitative agreement with our result. The hydration entropy is a highly informative molecule parameter which is notoriously difficult to measure, yielding an interesting application for thermodiffusion.

For data set [3] the following is noted: at a comparable temperature; cited from earlier work.

Regarding BCECF, the “Soret coefficient ST” value in data set [1] is given as 0.015 /K.

On to “5′-GATGAGTTCGTGTCCGTACAACTGG-3′ (DNA, 5' {AF700}, backbone and methylation of C not given here) [probe]”, for which the concentration change with bacteriophage lambda DNA (free probe, 40 nM) is reported as −2%; in the data set with bacteriophage lambda DNA (probe 40 nM mixed with 10 nM lambda DNA, without annealing procedure) it was −3%; in the data set on bacteriophage lambda DNA (probe 40 nM with 10 nM lambda DNA after denaturing (94° C., 5 min) and annealing (72° C., 5 min)) it was −10%.

Regarding `C[C@H](NS(=O)(=O)c1cccc2c(N(C)C)cccc12)C(=O)O` [Dansyl-Alanine], the “hydration entropy per surface shyd” value in data set [2] is given as −2500 J/(molKμm^2). Moreover, the hydration entropy in data set [3] is −0.13 J/(molK).
